Experimental data published in the supplement of paper PMC10307832.

How the values were obtained:
Assay in all cases: relative viability (nuclei count vs DMSO), 5 days (fraction); higher = more cells survive
Kobe2602 + Pemetrexed = compound: C1=CC(=CC=C1NC(=S)NNC2=C(C=C(C=C2[N+](=O)[O-])C(F)(F)F)[N+](=O)[O-])F [Kobe2602] + Nc1nc2[nH]cc(CCc3ccc(C(=O)N[C@@H](CCC(=O)O)C(=O)O)cc3)c2c(=O)[nH]1 [Pemetrexed] (partner 0.2 µM)
Outline: (§1)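 Lung cancer cell lines were pin-tool dosed in 1536-well plates on the day after seeding, with either a lone drug or a fixed anchor-drug dose plus five library-drug doses (not always all listed) in √10 steps. Nuclei were counted on 4× images after 5 days. Relative viability is the ratio of treated-well to vehicle-well nuclei counts, with each value a median of duplicate plates.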

Kobe2602 + Vorinostat = compound: C1=CC(=CC=C1NC(=S)NNC2=C(C=C(C=C2[N+](=O)[O-])C(F)(F)F)[N+](=O)[O-])F [Kobe2602] + O=C(CCCCCCC(=O)Nc1ccccc1)NO [Vorinostat] (partner 1 µM)
Outline: as §1

Zosuquidar + Tozasertib = compound: O[C@@H](COc1cccc2ncccc12)CN1CCN([C@@H]2c3ccccc3[C@@H]3[C@H](c4ccccc42)C3(F)F)CC1 [Zosuquidar] + Cc1cc(Nc2cc(N3CCN(C)CC3)nc(Sc3ccc(NC(=O)C4CC4)cc3)n2)n[nH]1 [Tozasertib] (partner 0.1 µM)
Outline: as §1

Zosuquidar + Olaparib = compound: O[C@@H](COc1cccc2ncccc12)CN1CCN([C@@H]2c3ccccc3[C@@H]3[C@H](c4ccccc42)C3(F)F)CC1 [Zosuquidar] + O=C(c1cc(Cc2n[nH]c(=O)c3ccccc23)ccc1F)N1CCN(C(=O)C2CC2)CC1 [Olaparib] (partner 8 µM)
Outline: as §1

Cell Line	relative viability (Kobe2602 + Pemetrexed; first compound 0.2 µM)	relative viability (Kobe2602 + Pemetrexed; first compound 0.6325 µM)	relative viability (Kobe2602 + Pemetrexed; first compound 2 µM)	relative viability (Kobe2602 + Pemetrexed; first compound 6.325 µM)	relative viability (Kobe2602 + Pemetrexed; first compound 20 µM)	relative viability (Kobe2602 + Vorinostat; first compound 0.2 µM)	relative viability (Kobe2602 + Vorinostat; first compound 0.6325 µM)	relative viability (Kobe2602 + Vorinostat; first compound 2 µM)	relative viability (Kobe2602 + Vorinostat; first compound 6.325 µM)	relative viability (Kobe2602 + Vorinostat; first compound 20 µM)	relative viability (Zosuquidar + Tozasertib; first compound 0.01 µM)	relative viability (Zosuquidar + Tozasertib; first compound 0.03162 µM)	relative viability (Zosuquidar + Tozasertib; first compound 0.1 µM)	relative viability (Zosuquidar + Tozasertib; first compound 0.3162 µM)	relative viability (Zosuquidar + Tozasertib; first compound 1 µM)	relative viability (Zosuquidar + Olaparib; first compound 0.01 µM)	relative viability (Zosuquidar + Olaparib; first compound 0.03162 µM)	relative viability (Zosuquidar + Olaparib; first compound 0.1 µM)	relative viability (Zosuquidar + Olaparib; first compound 0.3162 µM)	relative viability (Zosuquidar + Olaparib; first compound 1 µM)
NCI-H2023	0.218	0.255	0.194	0.211	0.0788	0.56	0.75	0.566	0.481	0.317	0.335	0.426	0.407	0.398	0.314	0.498	0.549	0.52	0.485	0.477
ChaGo-K-1	0.27	0.26	0.267	0.267	0.266	0.813	0.812	0.766	0.708	0.697	0.227	0.217	0.261	0.204	0.227	0.388	0.468	0.434	0.474	0.413
COR-L 105	1.01	1.27	0.923	1.15	1.16	0.786	0.932	0.647	0.774	0.705	0.293	0.315	0.402	0.309	0.333	0.641	0.711	0.662	0.761	0.582
SK-MES-1	0.917	0.946	0.934	0.868	0.534	1.03	1.11	1.01	0.97	0.585	0.797	1.01	0.97	0.942	0.857	0.707	0.739	0.829	0.73	0.723
A549																0.301	0.379	0.306	0.371	0.35
NCI-H23	0.653	0.8	0.82	0.584	0.742	0.616	0.645	0.628	0.544	0.729	0.393	0.629	0.537	0.34	0.362	0.328		0.362	0.319	0.336
NCI-H1993	0.561	0.589	0.461	0.531	0.587	0.737	0.817	0.782	0.586	0.728	0.564	0.5	0.578	0.595	0.541	0.949	1.01		1.19	1.05
Calu-6																0.583	0.677	0.714	0.605	0.594
NCI-H1648	0.759	0.684	0.519	0.693	0.809	0.464	0.441	0.351	0.334	0.338	0.602		0.316	0.497	0.562	0.5	0.908	0.614	0.799	0.877
